Assay: clinical trial: lipoprotein profiles in blood serum of patients treated with a PDE4 inhibitor (ultracentrifugation density separation)
Type: in vivo, human
Description: In a clinical trial, five patients were treated by daily doses of a PDE4 inhibitor. As an exemplifying and representative compound, roflumilast was used as the PDE4 inhibitor. Lipoprotein profiles were measured at start of the therapy (time T0), four weeks after start (T1) and eight weeks after start (T2). Treatment was further monitored thereafter. In an embodiment, a first unit dose ([…]) was administered orally every second day for a period of four weeks, and subsequently the dose was increased to a unit of […] per day until a time of 8 weeks.
For analysing and measuring the lipoprotein profiles and thus the relative concentrations and levels of lipoprotein fractions and the cholesterol and triglyceride amounts per lipoprotein, 10 ml venous blood was drawn at the indicated time Points. Lipoprotein profiles and fractions were determined using density separation by means of ultra-centrifugation and subsequent determination of the lipoprotein components (Baumstark et al., Biochem. Biophys. Acta—Protein Structure and Molecular Enzymology 1037, 48-57 (1990); Frey et al., Eur. J. Appl, Physiol. 60, 441-444 (1990)). The components and parameters determined include cholesterol and triglyceride proportions of HDL and LDL, and of sub-fractions LDL-1 to LDL-6, and HDL-2a-2b and -3. Statistical analysis of the results was carried out by SPSS 23.0.

[1] = five patients, oral roflumilast, T1 (4 weeks) and T2 (8 weeks) compared to T0, blood serum
[2] = five patients, oral roflumilast, blood serum

O=C(Nc1c(Cl)cncc1Cl)c1ccc(OC(F)F)c(OCC2CC2)c1 [roflumilast, 3-cyclopropylmethoxy-4-difluoromethoxy-N-(3,5-dichloropyrid-4-yl)-benzamide]
persistence of the reduction of LDL-C (after 12 weeks (not shown)): maintained over longer time periods
persistence of the reduction of LDL-TG (after 12 weeks (not shown)): maintained over longer time periods
change of LDL-TG [1]: substantially reduced
reduction of LDL-C [1]: approximately 30 mg/dl
change of HDL-C [2]: Slight reductions
change of HDL-TG [2]: Slight reductions

Source: patent publication US20180318271A1, “Use of PDE4 Inhibitors for the Prophylaxis and/or Therapy of Dyslipoproteinaemia and Related Disorders” (Albert-Ludwigs-Universität Freiburg, priority 2015, published 2018)
